Source: PMC12638379, “An innovative approach to development of new pyrazolylquinolin-2-one hybrids as dual EGFR and BRAF^V600E inhibitors” (Molecular Diversity, 2025)
Like-named read-outs stand apart in the source and are kept apart here.

Test system: NCI 60 cancer cell lines
Test: NCI anticancer screening over a panel of 60 cancer cells, single concentration 10 µM
Type: cell-based, human
Settings: Homo sapiens, read-out: Growth inhibition (GI %)
Experimental: Ten final compounds 4a–j and five intermediates 2a–e have been selected by the National Cancer Institute (NCI) for anticancer screening over a panel of 60 cancer cells that cover a variety of histological tissues, including the central nervous system, leukemia, lung, colon, kidney, ovary, breast, and prostate, using the protocol established by the National Cancer Institute (NCI). In a primary screening, each compound was screened at a concentration of 10 µM.
Compounds 2a-e and 4a-j were selected by the National Cancer Institute (NCI) according to the protocol of the Compound Evaluation Branch of the National Cancer Institute, Bethesda, USA, for in vitro anticancer screening which refers in turn to apoptotic activity. The methodology of the NCI anticancer screening has been described in detail elsewhere (http://www.dtp.nci.nih.gov).

Q: `COc1ccc2[nH]c(=O)cc(-n3ncc(C(C)=O)c3C)c2c1` [Compound 2c, 4-(4-Acetyl-5-methyl-1H-pyrazol-1-yl)-6-methoxyquinolin-2(1H)-one] was tested. Which inhibition at 10 µM (786-0, Renal cancer 786-0, 10 μM) did it give?
A: The inhibition at 10 µM was < 5%.

Q: What about the inhibition at 10 µM (A498, Renal cancer A498, 10 μM) of the same molecule?
A: The inhibition at 10 µM was < 5%.

Q: And the inhibition at 10 µM (A549, Non-small cell lung cancer A549/ATCC, 10 μM)?
A: Its inhibition at 10 µM is < 5%.

Q: What about the inhibition at 10 µM (ACHN, Renal cancer ACHN, 10 μM) of the same molecule?
A: Its inhibition at 10 µM is < 5%.

Q: What about the inhibition at 10 µM (BT-549, Breast cancer BT-549, 10 μM) of the same molecule?
A: Its inhibition at 10 µM is < 5%.

Q: And the inhibition at 10 µM (CAKI-1, Renal cancer CAKI-1, 10 μM)?
A: The inhibition at 10 µM was 15.6%.

Q: And the inhibition at 10 µM (CCRF-CEM, Leukemia CCRF-CEM, 10 μM)?
A: Its inhibition at 10 µM is 5.28%.

Q: And the inhibition at 10 µM (COLO 205, Colon cancer COLO 205, 10 μM)?
A: Its inhibition at 10 µM is < 5%.

Q: What about the inhibition at 10 µM (DU-145, Prostate cancer DU-145, 10 μM) of the same molecule?
A: Its inhibition at 10 µM is < 5%.

Q: And the inhibition at 10 µM (EKVX, Non-small cell lung cancer EKVX, 10 μM)?
A: Its inhibition at 10 µM is 6.27%.

Q: And the inhibition at 10 µM (HCC 2998, Colon cancer HCC-2998, 10 μM)?
A: Its inhibition at 10 µM is < 5%.

Q: And the inhibition at 10 µM (HCT-15, Colon cancer HCT-15, 10 μM)?
A: Its inhibition at 10 µM is < 5%.

Q: What about the inhibition at 10 µM (HCT-116, Colon cancer HCT-116, 10 μM) of the same molecule?
A: Its inhibition at 10 µM is 7.78%.

Q: What about the inhibition at 10 µM (HL-60, Leukemia HL-60(TB), 10 μM) of the same molecule?
A: The inhibition at 10 µM was 12.5%.

Q: And the inhibition at 10 µM (HOP-62, Non-small cell lung cancer HOP-62, 10 μM)?
A: The inhibition at 10 µM was 18.8%.

Q: What about the inhibition at 10 µM (HOP-92, Non-small cell lung cancer HOP-92, 10 μM) of the same molecule?
A: The inhibition at 10 µM was 31.6%.

Q: What about the inhibition at 10 µM (HT-29, Colon cancer HT29, 10 μM) of the same molecule?
A: Its inhibition at 10 µM is < 5%.

Q: And the inhibition at 10 µM (Hs-578T, Breast cancer HS 578T, 10 μM)?
A: The inhibition at 10 µM was < 5%.

Q: And the inhibition at 10 µM (IGROV-1, Ovarian cancer IGROV1, 10 μM)?
A: Its inhibition at 10 µM is < 5%.

Q: And the inhibition at 10 µM (K562, Leukemia K-562, 10 μM)?
A: Its inhibition at 10 µM is < 5%.

Q: And the inhibition at 10 µM (KM12, Colon cancer KM12, 10 μM)?
A: The inhibition at 10 µM was < 5%.

Q: And the inhibition at 10 µM (LOX IMVI, Melanoma LOX IMVI, 10 μM)?
A: Its inhibition at 10 µM is 11.3%.

Q: What about the inhibition at 10 µM (Leukemia SR, 10 μM) of the same molecule?
A: The inhibition at 10 µM was 8.98%.

Q: What about the inhibition at 10 µM (MCF7, Breast cancer MCF7, 10 μM) of the same molecule?
A: The inhibition at 10 µM was < 5%.

Q: And the inhibition at 10 µM (MDA-MB-231, Breast Cancer MDA-MB 231/ATCC, 10 μM)?
A: Its inhibition at 10 µM is 7%.

Q: And the inhibition at 10 µM (MDA-MB-435, Melanoma MDA-MB-435, 10 μM)?
A: The inhibition at 10 µM was < 5%.

Q: And the inhibition at 10 µM (MDA-MB-468, Breast cancer MDA-MB-468, 10 μM)?
A: Its inhibition at 10 µM is < 5%.

Q: And the inhibition at 10 µM (MOLT-4, Leukemia MOLT-4, 10 μM)?
A: The inhibition at 10 µM was < 5%.

Q: And the inhibition at 10 µM (Malme-3M, Melanoma MALME-3M, 10 μM)?
A: The inhibition at 10 µM was < 5%.

Q: And the inhibition at 10 µM (Melanoma M14, 10 μM)?
A: Its inhibition at 10 µM is < 5%.

Q: And the inhibition at 10 µM (NCI-H23, Non-small cell lung cancer NCI-H23, 10 μM)?
A: Its inhibition at 10 µM is < 5%.

Q: What about the inhibition at 10 µM (NCI-H226, Non-small cell lung cancer NCI-H226, 10 μM) of the same molecule?
A: Its inhibition at 10 µM is 7.15%.

Q: And the inhibition at 10 µM (NCI-H322M, Non-small cell lung cancer NCI-H322M, 10 μM)?
A: The inhibition at 10 µM was 7.11%.

Q: What about the inhibition at 10 µM (NCI-H460, Non-small cell lung cancer NCI-H460, 10 μM) of the same molecule?
A: Its inhibition at 10 µM is < 5%.

Q: What about the inhibition at 10 µM (NCI-H522, Non-small cell lung cancer NCI-H522, 10 μM) of the same molecule?
A: Its inhibition at 10 µM is 8.32%.

Q: What about the inhibition at 10 µM (NCI/ADR-RES, Ovarian cancer NCI/ADR-RES, 10 μM) of the same molecule?
A: Its inhibition at 10 µM is < 5%.

Q: And the inhibition at 10 µM (OVCAR-3, Ovarian cancer OVCAR-3, 10 μM)?
A: The inhibition at 10 µM was < 5%.

Q: And the inhibition at 10 µM (OVCAR-4, Ovarian cancer OVCAR-4, 10 μM)?
A: Its inhibition at 10 µM is < 5%.

Q: What about the inhibition at 10 µM (OVCAR-5, Ovarian cancer OVCAR-5, 10 μM) of the same molecule?
A: Its inhibition at 10 µM is < 5%.

Q: What about the inhibition at 10 µM (OVCAR-8, Ovarian cancer OVCAR-8, 10 μM) of the same molecule?
A: Its inhibition at 10 µM is < 5%.

Q: And the inhibition at 10 µM (Prostate cancer PC-3, 10 μM)?
A: The inhibition at 10 µM was 13.4%.

Q: What about the inhibition at 10 µM (RPMI-8226, Leukemia RPMI-8226, 10 μM) of the same molecule?
A: Its inhibition at 10 µM is 11.7%.

Q: What about the inhibition at 10 µM (RXF 393, Renal cancer RXF 393, 10 μM) of the same molecule?
A: The inhibition at 10 µM was < 5%.

Q: And the inhibition at 10 µM (SF-268, CNS Cancer SF-268, 10 μM)?
A: The inhibition at 10 µM was < 5%.

Q: What about the inhibition at 10 µM (SF-295, CNS Cancer SF-295, 10 μM) of the same molecule?
A: The inhibition at 10 µM was < 5%.

Q: What about the inhibition at 10 µM (SF-539, CNS Cancer SF-539, 10 μM) of the same molecule?
A: The inhibition at 10 µM was < 5%.

Q: What about the inhibition at 10 µM (SK-MEL-2, Melanoma SK-MEL-2, 10 μM) of the same molecule?
A: Its inhibition at 10 µM is < 5%.

Q: What about the inhibition at 10 µM (SK-MEL-5, Melanoma SK-MEL-5, 10 μM) of the same molecule?
A: Its inhibition at 10 µM is < 5%.

Q: What about the inhibition at 10 µM (SK-MEL-28, Melanoma SK-MEL-28, 10 μM) of the same molecule?
A: The inhibition at 10 µM was < 5%.

Q: And the inhibition at 10 µM (SK-OV-3, Ovarian cancer SK-OV-3, 10 μM)?
A: Its inhibition at 10 µM is 7.83%.

Q: What about the inhibition at 10 µM (SN12C, Renal cancer SN12C, 10 μM) of the same molecule?
A: The inhibition at 10 µM was < 5%.

Q: What about the inhibition at 10 µM (SNB-19, CNS Cancer SNB-19, 10 μM) of the same molecule?
A: Its inhibition at 10 µM is < 5%.

Q: What about the inhibition at 10 µM (SNB-75, CNS Cancer SNB-75, 10 μM) of the same molecule?
A: The inhibition at 10 µM was 11.8%.

Q: And the inhibition at 10 µM (SW-620, Colon cancer SW-620, 10 μM)?
A: The inhibition at 10 µM was < 5%.

Q: What about the inhibition at 10 µM (T47D, Breast cancer T-47D, 10 μM) of the same molecule?
A: The inhibition at 10 µM was 9.18%.

Q: What about the inhibition at 10 µM (TK-10, Renal cancer TK-10, 10 μM) of the same molecule?
A: Its inhibition at 10 µM is < 5%.

Q: And the inhibition at 10 µM (U-251, CNS Cancer U251, 10 μM)?
A: Its inhibition at 10 µM is 5.38%.

Q: What about the inhibition at 10 µM (UACC-62, Melanoma UACC-62, 10 μM) of the same molecule?
A: Its inhibition at 10 µM is < 5%.

Q: What about the inhibition at 10 µM (UACC-257, Melanoma UACC-257, 10 μM) of the same molecule?
A: Its inhibition at 10 µM is < 5%.

Q: And the inhibition at 10 µM (UO-31, Renal cancer UO-31, 10 μM)?
A: Its inhibition at 10 µM is 34.4%.
